IC50 data for 6 compounds are collected here from patent publication EP0994104A1, “ARYL (SULFIDE, SULFOXIDE AND SULFONE) DERIVATIVES AND DRUGS CONTAINING THE SAME AS THE ACTIVE INGREDIENT” (ONO PHARMACEUTICAL CO., LTD., priority 1996, dated 1997).

The target of this assay is T1, gelatinase A (Homo sapiens, UniProt P08253).
T1 construct: endogenous in cells; host or cells: human normal skin dermal fibroblasts (HNDF)
T1 sequence (P08253 110-660): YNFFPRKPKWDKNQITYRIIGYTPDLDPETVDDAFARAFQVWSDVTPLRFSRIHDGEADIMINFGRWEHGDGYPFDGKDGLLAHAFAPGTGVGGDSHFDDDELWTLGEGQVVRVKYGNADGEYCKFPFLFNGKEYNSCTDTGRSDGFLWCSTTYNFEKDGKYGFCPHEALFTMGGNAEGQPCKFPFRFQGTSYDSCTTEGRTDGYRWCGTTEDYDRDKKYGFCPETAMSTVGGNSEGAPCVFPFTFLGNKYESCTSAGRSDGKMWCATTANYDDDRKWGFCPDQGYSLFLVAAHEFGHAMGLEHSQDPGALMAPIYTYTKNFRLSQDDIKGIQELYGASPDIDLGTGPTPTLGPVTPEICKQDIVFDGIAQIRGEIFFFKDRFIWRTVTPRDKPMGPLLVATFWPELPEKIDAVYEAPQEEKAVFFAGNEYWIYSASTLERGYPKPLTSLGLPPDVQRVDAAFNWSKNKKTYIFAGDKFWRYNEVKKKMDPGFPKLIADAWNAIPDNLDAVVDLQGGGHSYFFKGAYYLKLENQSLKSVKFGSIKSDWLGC
Put plainly: Inhibitory activity against gelatinase A (FITC-gelatin degradation, fluorescence). The format is biochemical. Particulars: progelatinase A purified from human normal skin dermal fibroblasts (HNDF), activated with APMA; 0.05 % FITC-gelatin, 2 hours at 37°C. The protocol:
(1) Inhibitory activity against gelatinase A.
The progelatinase A (7 µl; in assay buffer (90 µl) was purified from human normal skin dermal fibroblasts (HNDF). It was activated by the addition of 10 mM APMA (10 µl) for 1 hour at 37°C. The solution of activated gelatinase A (1 U/tube, 98 µl) was mixed with the solution of various concentrations of the test compound or the solution in which the test compound is not added, (2 µl), and 0.05 % FITC-gelatin (100 µl) and incubated for 2 hours at 37°C. The enzymatic reaction was terminated by the addition of 2 M Tris-HCl (pH 9.5) containing 94.7% ethanol (750 µl). The mixture was stirred and then allowed to stand for 30 minutes at 0°C. The mixture was centrifuged for 30 minutes at 900 x g. Inhibitory activity against gelatinase was determined by measuring the fluorescent intensity in supernatant (Ex = 495 nm, and Em = 520 nm).
In the above experimental method, APMA is p-aminophenylmercuric acetate and FITC is fluorescein isothiocyanate.
As to `O=C(O)CCS(=O)(=O)c1ccc(NC(=O)c2ccccc2)cc1` [Example 8(2), 3-[4-(benzoylamino)phenylsulfonyl]propionic acid], the IC50 – broadly, the concentration needed to halve the response being measured – is 540 nM.
`O=C(O)CCS(=O)(=O)c1ccc(C#Cc2ccccc2)cc1` [Example 8(7), 3-[4-(phenylethynyl)phenylsulfonyl]propionic acid] registered an IC50 of 400 nM.
Turning to `COc1ccc(S(=O)(=O)CC(NC(=O)C(NC(=O)OC(C)(C)C)c2ccccc2)C(=O)NO)cc1` (stereo not drawn) [Example 19(1), N-hydroxy-2-[N-[N-(t-butoxycarbonyl)phenylglycyl]amino]-3-(4-methoxyphenylsulfonyl)propionamide], the IC50 amounted to 11 nM. This IC50 lies about 36-fold lower than the previous one.
In turn, `CC(CS(=O)(=O)c1ccc(-c2cc3ccccc3o2)cc1)C(=O)NO` (stereo not drawn) [Example 28(1), N-hydroxy-2-methyl-3-[4-(2-benzofuranyl)phenylsulfonyl]propionamide] showed a half-inhibitory concentration (IC50) of 1.4 nM.
`Cc1ccc(C#Cc2ccc(S(=O)(=O)CC(C)C(=O)NO)cc2)cc1` (stereo not drawn) [Example 28(3), N-hydroxy-2-methyl-3-[4-(4-tolylethynyl)phenylsulfonyl]propionamide] returned an IC50 of 2.9 nM.
The value for `CCCCCC#Cc1ccc(S(=O)(=O)CC(C)C(=O)NO)cc1` (stereo not drawn) [Example 28, N-hydroxy-2-methyl-3-[4-(1-heptynyl)phenylsulfonyl]propionamide] was 13 nM.
